In patent US10849893B2 (Athenex HK Innovative Limited, priority 2018, dated 2020):
Like-named read-outs stand apart in the source and are kept apart here.

How the values were obtained:
[1] = clinical; conditions: human, po
Procedure: A 2-part study was conducted in subjects with solid tumors (“Study 2”). […] The dose levels increased to 75 mg/m^2, 150 mg/m^2, 225 mg/m^2, 300 mg/m^2, 375 mg/m^2, and 400 mg/m^2. In the second part of this study, half of the group starting at a selected dose from stage 1, was given over two consecutive days every three weeks. A total of 15 (n=40) subjects enrolled in this study.
All subject PK data within the dataset were analyzed using Phoenix 8.0. […] Individual time points for the terminal slope were automatically selected by the software, and linear up—log down interpolation calculation method was used for the analysis. Individual BLQ samples were set to 0.00 ng/ml for noncompartmental analysis unless the PK sample occurred between two PK samples above the limit of quantification, in which case the PK sample was set to missing. For the calculation of summary statistics and mean concentration figures, all BLQ samples were set to 0.00 ng/ml.

[2] = clinical
[3] = set-up: Dose Normalized AUC: unit not given beside the values; conditions: cited from earlier work
[4] = male, human, in vivo, po, 75 mg/m2
[5] = mean oral (75 mg/m^2) as % of mean IV (60 mg/m^2)
[6] = IV 20 mg/m^2, infusion 1 h, n = 1
[7] = IV 20 mg/m^2, infusion 24 h, n = 1
[8] = IV 30 mg/m^2, infusion 1.58 (0.80) h, n = 2
[9] = IV 40 mg/m^2, infusion 1 h, n = 1
[10] = IV 40 mg/m^2, infusion 24 h, n = 3
[11] = IV 55 mg/m^2, infusion 1.68 (0.75) h, n = 3
[12] = IV 55 mg/m^2, infusion 24 h, n = 4
[13] = IV 70 mg/m^2, infusion 1.37 (0.53) h, n = 2

CC(=O)O[C@@]12CO[C@@H]1C[C@H](O)[C@@]1(C)C(=O)[C@H](O)C3=C(C)[C@@H](OC(=O)[C@H](O)[C@@H](NC(=O)OC(C)(C)C)c4ccccc4)C[C@@](O)([C@@H](OC(=O)c4ccccc4)[C@H]21)C3(C)C [docetaxel, (2aR,4S,4aS,6R,9S,11S,12S,12aR,12b S)-12b-acetoxy-9-(((2R,3S)-3-((tert-butoxycarbonyl)amino)-2-hydroxy-3-phenylpropanoyl)oxy)-4,6,11-trihydroxy-4a,8,13,13-tetramethyl-5-oxo-2a,3,4,4a,5,6,9,10,11,12,12a, 12b-dodecahydro-1H-7,11-methanocyclodeca[3,4]benzo[1,2-b]oxet-12-yl benzoate]
AUC(0-inf) ([1]; in vivo, 35 mg/m2): 308 ng·h/mL | half-life ([1]; in vivo, 150 mg/m2): 53.2 h | Cmax ([1]; in vivo, 150 mg/m2, Cmax, oral 150 mg/m^2 with Compound A, individual subjects): 125 ng/mL | half-life ([1]; in vivo, 225 mg/m2): 54.4 h | Cmax ([1]; in vivo, 225 mg/m2, Cmax, oral 225 mg/m^2 with Compound A, individual subjects): 118 ng/mL | AUC(0-t) ([1]; plasma, 35 mg/m2, AUC0-12, oral 35 mg/m^2 with Compound A, Mean, N=4): 184 ng·h/mL | AUC(0-t) ([1]; plasma, 35 mg/m2, AUC0-24, oral 35 mg/m^2 with Compound A, Mean, N=4): 211 ng·h/mL | AUC(0-t) ([1]; plasma, 35 mg/m2, AUC0-48, oral 35 mg/m^2 with Compound A, Mean, N=4): 240 ng·h/mL | AUC(0-inf) ([1]; plasma, 35 mg/m2, AUCINF—obs, oral 35 mg/m^2 with Compound A, Mean, N=4): 296 ng·h/mL | Cmax ([1]; plasma, 35 mg/m2, Cmax, oral 35 mg/m^2 with Compound A, Mean, N=4): 69.1 ng/mL | Cmax ([1]; plasma, 35 mg/m2, Cmax, oral 35 mg/m^2 with Compound A, individual subjects): 38 to 157 ng/mL | half-life ([1]; plasma, 35 mg/m2, t1/2, oral 35 mg/m^2 with Compound A, Mean, N=4): 27.6 h | half-life ([1]; plasma, 35 mg/m2, t1/2, oral 35 mg/m^2 with Compound A, mean): 29.2 h | concentration at 24 hr ([1]; plasma, 35 mg/m^2, Analyte Concentration, oral 35 mg/m^2, cohort 1, time 24.0 hr, individual subjects): 1.25 ng/mL | AUC(0-t) ([1]; plasma, 75 mg/m2, AUC0-48, oral 75 mg/m^2 with Compound A, Mean, N=3): 675 ng·h/mL | AUC(0-inf) ([1]; plasma, 75 mg/m2, AUCINF—obs, oral 75 mg/m^2 with Compound A, Mean, N=3): 815 ng·h/mL | Cmax ([1]; plasma, 75 mg/m2, Cmax, oral 75 mg/m^2 with Compound A, Mean, N=3): 172 ng/mL | half-life ([1]; plasma, 75 mg/m2, Reported half-life, oral 75 mg/m^2, individual values, sampling to 168 h, LLOQ 0.2 ng/mL): 51.4 h | half-life ([1]; plasma, 75 mg/m2, t1/2, oral 75 mg/m^2 with Compound A, Mean, N=3): 53.1 h | half-life ([1]; plasma, 75 mg/m2, t1/2, oral 75 mg/m^2 with Compound A, individual subjects): 51.4 h | half-life ([1]; plasma, 75 mg/m2, t1/2, oral 75 mg/m^2 with Compound A, mean): 53.1 h | concentration at 0.25 hr ([1]; plasma, 75 mg/m^2, Analyte Concentration, oral 75 mg/m^2, cohort 2, time 0.250 hr, individual subjects): 28 ng/mL | Tmax ([1]; plasma, 150 mg/m2): 2.67 h | AUC(0-t) ([1]; plasma, 150 mg/m2, AUC0-12, oral 150 mg/m^2 with Compound A, individual subjects): 446 ng·h/mL | Cmax ([1]; plasma, 150 mg/m2, Cmax, oral 150 mg/m^2 with Compound A, individual subjects): 112 to 136 ng/mL | half-life ([1]; plasma, 150 mg/m2, Reported half-life, oral 150 mg/m^2, individual values, sampling to 168 h, LLOQ 0.2 ng/mL): 72 h | half-life ([1]; plasma, 150 mg/m2, t1/2, oral 150 mg/m^2 with Compound A, individual subjects): 72 h | Tmax ([1]; plasma, 225 mg/m2): 0.5 h | AUC(0-t) ([1]; plasma, 225 mg/m2, AUC0-24, oral 225 mg/m^2 with Compound A, Mean, N=3): 792 ng·h/mL | AUC(0-t) ([1]; plasma, 225 mg/m2, AUC0-24, oral 225 mg/m^2 with Compound A, individual subjects): 986 ng·h/mL | AUC(0-t) ([1]; plasma, 225 mg/m2, AUC0-48, oral 225 mg/m^2 with Compound A, Mean, N=3): 914 ng·h/mL | AUC(0-inf) ([1]; plasma, 225 mg/m2, AUCINF—obs, oral 225 mg/m^2 with Compound A, Mean, N=3): 1190 ng·h/mL | half-life ([1]; plasma, 225 mg/m2, t1/2, oral 225 mg/m^2 with Compound A, Mean, N=3): 56 h | half-life ([1]; plasma, 225 mg/m2, t1/2, oral 225 mg/m^2 with Compound A, individual subjects): 67.3 h | concentration at 1 hr ([1]; plasma, 225 mg/m^2, Analyte Concentration, oral 225 mg/m^2, cohort 4, time 1.00 hr, individual subjects): 55.6 ng/mL | concentration at 2 hr ([1]; plasma, 225 mg/m^2, Analyte Concentration, oral 225 mg/m^2, cohort 4, time 2.00 hr, individual subjects): 118 ng/mL | concentration at 4 hr ([1]; plasma, 225 mg/m^2, Analyte Concentration, oral 225 mg/m^2, cohort 4, time 4.00 hr, individual subjects): 28 ng/mL | Tmax Mean % ([2]; male, human, in vivo): 207.55% | Average Time above Target (0 to last time point measured above 4 ng/ml) ([2]; male, human, in vivo, iv): 40.9 h | Dose Normalized AUC ([2]; male, human, in vivo, iv): 27.17 ng·h/mL | AUC(0-t) ([2]; male, human, in vivo, iv, 60 mg/m2, AUC0-24): 1350 to 1970 ng·h/mL | AUC(0-inf) ([2]; male, human, in vivo, iv, 60 mg/m2, AUC0-inf): 1970 ng·h/mL | AUC(0-t) ([2]; male, human, in vivo, iv, 60 mg/m2, AUC0-t): 1890 ng·h/mL | Cmax ([2]; male, human, in vivo, iv, 60 mg/m2, Cmax): 1020 to 1570 ng/mL | Tmax ([2]; male, human, in vivo, iv, 60 mg/m2, Tmax): 0.88 h | half-life ([2]; male, human, in vivo, iv, Reported half-life): 17.4 h | Average Time above Target (0 to last time point measured above 4 ng/ml) ([2]; male, human, in vivo, po): 20.5 h | Dose Normalized AUC ([2]; male, human, in vivo, po): 23.33 ng·h/mL | AUC(0-inf) [2, 4]: 476 ng·h/mL | half-life [2, 4]: 21.3 h | AUC(0-t) ([2]; male, human, in vivo, po, 75 mg/m2, AUC0-24): 313 to 336 ng·h/mL | AUC(0-inf) ([2]; male, human, in vivo, po, 75 mg/m2, AUC0-inf): 478 ng·h/mL | AUC(0-t) ([2]; male, human, in vivo, po, 75 mg/m2, AUC0-t): 395 ng·h/mL | half-life ([2]; male, human, in vivo, po, 75 mg/m2, Reported half-life): 16.4 h | Tmax ([2]; male, human, in vivo, po, 75 mg/m2, Tmax): 1.83 h | Cmax Mean % [2, 5]: 7.87% | t1/2 Mean % [2, 5]: 104.60% | AUC0-24 [3, 6]: 960 ng·h/mL | Dose Normalized AUC [3, 6]: 48 | t1/2 γ [3, 6]: 2.2 h | AUC0-24 [3, 7]: 920 ng·h/mL | Dose Normalized AUC [3, 7]: 46 | AUC0-24 [3, 8]: 1260 ng·h/mL | Cmax [3, 8]: 640 (450) ng/ml | Dose Normalized AUC [3, 8]: 42 | t1/2 γ [3, 8]: 4.6 h | AUC0-24 [3, 9]: 670 ng·h/mL | Cmax [3, 9]: 420 ng/mL | Dose Normalized AUC [3, 9]: 16.75 | t1/2 γ [3, 9]: 3.8 h | AUC0-24 [3, 10]: 2190 ng·h/mL | Dose Normalized AUC [3, 10]: 54.75 | AUC0-24 [3, 11]: 1420 ng·h/mL | Cmax [3, 11]: 820 (380) ng/ml | Dose Normalized AUC [3, 11]: 25.82 | t1/2 γ [3, 11]: 2 h | AUC0-24 [3, 12]: 2560 ng·h/mL | Dose Normalized AUC [3, 12]: 46.55 | AUC0-24 [3, 13]: 2790 ng·h/mL | Cmax [3, 13]: 1910 (320) ng/ml | Dose Normalized AUC [3, 13]: 39.86 | t1/2 γ [3, 13]: 2.5 h | AUC0-24 ([3]; IV 70 mg/m^2, infusion 24 h, n = 3): 3470 ng·h/mL
